Source: paper PMC12718081 (ACS Infectious Diseases, 2025)
“Also recorded” adds a separate entry of the source. Read-outs that look alike come from different tables or passages of the source.

Columns and labels:
[1] = system: adult schistosomes (male and female worms); experiment: Adult worm ex vivo high-content image-based motility assay; format: cell-based, Schistosoma mansoni
Description: Adult schistosomes’ motility was determined using a high-content assay previously developed by our group, , with images analyzed in CellProfiler software. More details are provided in the Supporting Information.
(§1) Adult worm ex-vivo high-content assay
“Area” and “False Negative Rate” from the MeasureObjectSizeShape and MeasureObjectOverlap modules, respectively. These measurements were then modeled by a multilevel generalized linear statistical model. The effects of the experimental treatments on […]
(§2) The half-maximal inhibitory
(§3) Windows (GraphPad Software, Boston, MA, USA; www.graphpad.com). […]
with DMSO as a negative control.

[2] = system: juvenile schistosomes; experiment: Microscopy analysis of juvenile morphology and motility (viability score 0-3); settings: 10 μM, 72 h, Table S1
[3] = target: Eg.TRPMPZQ (Echinococcus granulosus, UniProt W6UVV9); experiment: cell-based; settings: HEK293, Ca2+ reporter, mean ± standard deviation
[4] = target: Sm.TRPMPZQ (wild-type) (Schistosoma mansoni, UniProt A0A5K4F0X5); experiment: Ca2+ reporter (FLIPR) activation assay, wild-type Sm.TRPMPZQ in HEK293 cells; format: cell-based
Description: The Ca^2+ reporter assay was performed using a Fluorescence Imaging Plate Reader (FLIPR) system, as described in the Supporting Information. […]
as §2, §3
with DMSO as a negative control. […]
reader. […] The fluorescence
Untransfected HEK293 cells were used as a control.
10% fetal bovine serum (FBS). […]
atmosphere containing 5% CO₂. Following incubation, the growth medium was removed and […]
buffer containing 2.5 mM probenecid in HBSS (with Ca²⁺ and Mg²⁺), 20 mM HEPES, 0.3% BSA (Sigma, A7030), and 0.03% L-ascorbic acid (Sigma). Cells were incubated for 40 minutes at 37 °C and subsequently for 20 minutes at room temperature. […]
prepared in assay buffer without dye and probenecid and dispensed into separate flat-bottom 384-well plates. Calcium flux measurements were performed at room temperature using a […]
instrument (Molecular Devices). Baseline fluorescence was recorded for 20 seconds, followed by the addition of 5 µL of each drug solution, after which fluorescence was measured continuously for 250 seconds. […]

[5] = system: HepG2 hepatic epithelial cells; experiment: in vitro
Description: (§4) Next, we conducted a more detailed investigation by performing dose–response assays with each compound on HepG2 hepatic epithelial cells, as the liver is one of the major organs affected in intestinal schistosomiasis.
(§5) More details are provided in the Supporting Information.
as §1
(§6) Male and female worms were placed in 96-well microplates (one worm per well) and incubated […]
(§7) to 72 hours. Brightfield timelapse images (100 images, 0.3-second intervals) were captured from each well before, immediately after, and every 24 hours following compound addition using an ImageXpress Micro Confocal High Content System equipped with a 2x objective. Image analysis was performed through a custom pipeline in CellProfiler software (v. 4.2.1, Windows OS).57 During analysis, the area of each worm and its displacement between consecutive image captures (i.e., images taken at successive time points) were measured using the parameters “Area” and “False Negative Rate” from the MeasureObjectSizeShape and MeasureObjectOverlap modules, respectively. These measurements were then modeled by a multilevel generalized linear statistical model. The effects of the experimental treatments on parasite motility were estimated with the integrated nested Laplace approximation (INLA) method, available in the INLA package of R (https://www.r-inla.org). The half-maximal inhibitory concentration (EC50) of each compound was calculated based on the worms' estimated motility using the […] 4-parameter logistic equation in GraphPad Prism version 9.0.0 for Windows (GraphPad Software, Boston, MA, USA; www.graphpad.com). […]
(§8) either at a fixed concentration (10 µM) or across a range of concentrations (0.0001–300 µM), or with DMSO as a negative control. Two hours before the end of the experiment (t0), a resazurin solution (final concentration: 0.01 mg/mL) was added to each well and the first fluorescence […]
(§9) reader. At the end of the incubation (t1), a second reading was performed. The fluorescence attributed solely to resorufin was measured by subtracting the fluorescence readings at t0 from those at t1. The results were expressed as percentual cell viability considering negative control

[6] = in vitro; settings: human, HepG2 cytotoxicity (CC50)
Description: as §4, §5, §1, §6, §7, §8, §9

Chain of Sm.TRPMPZQ (wild-type) (A0A5K4F0X5 entry or part of it): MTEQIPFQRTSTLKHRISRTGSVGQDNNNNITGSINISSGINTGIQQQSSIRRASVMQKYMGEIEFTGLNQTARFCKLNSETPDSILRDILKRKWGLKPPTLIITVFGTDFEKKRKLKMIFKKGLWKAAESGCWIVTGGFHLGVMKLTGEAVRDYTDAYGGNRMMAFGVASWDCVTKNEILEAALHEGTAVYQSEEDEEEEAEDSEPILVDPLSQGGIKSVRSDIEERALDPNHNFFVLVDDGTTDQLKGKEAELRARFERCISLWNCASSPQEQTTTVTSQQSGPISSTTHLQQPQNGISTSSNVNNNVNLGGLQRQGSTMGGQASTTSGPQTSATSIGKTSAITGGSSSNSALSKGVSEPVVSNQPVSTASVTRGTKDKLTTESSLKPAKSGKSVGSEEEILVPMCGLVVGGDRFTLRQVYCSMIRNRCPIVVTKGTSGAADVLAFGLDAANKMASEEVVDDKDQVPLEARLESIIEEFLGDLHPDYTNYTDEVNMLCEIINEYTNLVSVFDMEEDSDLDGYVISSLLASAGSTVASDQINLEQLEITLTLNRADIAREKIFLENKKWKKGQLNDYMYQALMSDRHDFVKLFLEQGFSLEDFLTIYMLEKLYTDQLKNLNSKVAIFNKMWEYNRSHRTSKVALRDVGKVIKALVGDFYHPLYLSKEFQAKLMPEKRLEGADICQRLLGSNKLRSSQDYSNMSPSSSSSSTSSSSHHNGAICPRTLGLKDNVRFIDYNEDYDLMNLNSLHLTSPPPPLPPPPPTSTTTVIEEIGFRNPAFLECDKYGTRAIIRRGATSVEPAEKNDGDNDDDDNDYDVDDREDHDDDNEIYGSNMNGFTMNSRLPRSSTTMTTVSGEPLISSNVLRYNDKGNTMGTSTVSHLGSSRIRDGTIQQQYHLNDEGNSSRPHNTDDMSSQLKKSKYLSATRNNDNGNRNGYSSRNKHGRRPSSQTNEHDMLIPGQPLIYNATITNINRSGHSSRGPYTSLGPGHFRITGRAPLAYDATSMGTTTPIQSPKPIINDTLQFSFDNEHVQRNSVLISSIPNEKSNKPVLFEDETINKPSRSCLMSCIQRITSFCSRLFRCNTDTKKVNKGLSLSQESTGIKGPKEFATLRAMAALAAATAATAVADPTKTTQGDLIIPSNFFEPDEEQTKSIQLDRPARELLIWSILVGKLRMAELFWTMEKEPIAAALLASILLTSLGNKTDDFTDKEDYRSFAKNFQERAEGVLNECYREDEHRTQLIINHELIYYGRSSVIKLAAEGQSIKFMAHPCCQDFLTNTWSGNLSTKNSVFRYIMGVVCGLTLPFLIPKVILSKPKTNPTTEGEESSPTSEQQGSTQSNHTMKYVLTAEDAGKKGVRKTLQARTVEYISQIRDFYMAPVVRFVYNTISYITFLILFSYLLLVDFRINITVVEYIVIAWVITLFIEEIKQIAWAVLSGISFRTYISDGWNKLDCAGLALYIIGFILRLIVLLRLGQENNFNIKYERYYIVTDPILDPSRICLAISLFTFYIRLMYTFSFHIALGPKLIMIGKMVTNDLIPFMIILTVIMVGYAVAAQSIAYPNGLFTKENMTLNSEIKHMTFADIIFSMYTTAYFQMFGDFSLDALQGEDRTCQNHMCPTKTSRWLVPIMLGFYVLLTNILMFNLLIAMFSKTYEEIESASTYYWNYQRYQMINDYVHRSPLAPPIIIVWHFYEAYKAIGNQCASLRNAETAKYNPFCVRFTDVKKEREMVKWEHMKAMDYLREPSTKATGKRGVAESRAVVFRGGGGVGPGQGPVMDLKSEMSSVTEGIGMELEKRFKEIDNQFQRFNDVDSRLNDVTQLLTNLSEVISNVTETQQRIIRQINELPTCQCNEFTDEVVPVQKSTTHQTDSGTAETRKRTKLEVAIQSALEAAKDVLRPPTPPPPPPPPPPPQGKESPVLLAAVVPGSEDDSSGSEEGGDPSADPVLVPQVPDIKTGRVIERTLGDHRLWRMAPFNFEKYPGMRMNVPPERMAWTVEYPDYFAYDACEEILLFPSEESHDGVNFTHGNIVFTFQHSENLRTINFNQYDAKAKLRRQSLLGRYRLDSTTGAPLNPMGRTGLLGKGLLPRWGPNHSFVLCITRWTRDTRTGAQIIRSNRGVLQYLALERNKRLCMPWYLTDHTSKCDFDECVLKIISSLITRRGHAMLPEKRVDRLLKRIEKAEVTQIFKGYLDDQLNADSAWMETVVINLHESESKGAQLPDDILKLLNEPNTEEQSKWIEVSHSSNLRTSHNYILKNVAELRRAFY
Chain of Eg.TRPMPZQ (W6UVV9 entry or part of it): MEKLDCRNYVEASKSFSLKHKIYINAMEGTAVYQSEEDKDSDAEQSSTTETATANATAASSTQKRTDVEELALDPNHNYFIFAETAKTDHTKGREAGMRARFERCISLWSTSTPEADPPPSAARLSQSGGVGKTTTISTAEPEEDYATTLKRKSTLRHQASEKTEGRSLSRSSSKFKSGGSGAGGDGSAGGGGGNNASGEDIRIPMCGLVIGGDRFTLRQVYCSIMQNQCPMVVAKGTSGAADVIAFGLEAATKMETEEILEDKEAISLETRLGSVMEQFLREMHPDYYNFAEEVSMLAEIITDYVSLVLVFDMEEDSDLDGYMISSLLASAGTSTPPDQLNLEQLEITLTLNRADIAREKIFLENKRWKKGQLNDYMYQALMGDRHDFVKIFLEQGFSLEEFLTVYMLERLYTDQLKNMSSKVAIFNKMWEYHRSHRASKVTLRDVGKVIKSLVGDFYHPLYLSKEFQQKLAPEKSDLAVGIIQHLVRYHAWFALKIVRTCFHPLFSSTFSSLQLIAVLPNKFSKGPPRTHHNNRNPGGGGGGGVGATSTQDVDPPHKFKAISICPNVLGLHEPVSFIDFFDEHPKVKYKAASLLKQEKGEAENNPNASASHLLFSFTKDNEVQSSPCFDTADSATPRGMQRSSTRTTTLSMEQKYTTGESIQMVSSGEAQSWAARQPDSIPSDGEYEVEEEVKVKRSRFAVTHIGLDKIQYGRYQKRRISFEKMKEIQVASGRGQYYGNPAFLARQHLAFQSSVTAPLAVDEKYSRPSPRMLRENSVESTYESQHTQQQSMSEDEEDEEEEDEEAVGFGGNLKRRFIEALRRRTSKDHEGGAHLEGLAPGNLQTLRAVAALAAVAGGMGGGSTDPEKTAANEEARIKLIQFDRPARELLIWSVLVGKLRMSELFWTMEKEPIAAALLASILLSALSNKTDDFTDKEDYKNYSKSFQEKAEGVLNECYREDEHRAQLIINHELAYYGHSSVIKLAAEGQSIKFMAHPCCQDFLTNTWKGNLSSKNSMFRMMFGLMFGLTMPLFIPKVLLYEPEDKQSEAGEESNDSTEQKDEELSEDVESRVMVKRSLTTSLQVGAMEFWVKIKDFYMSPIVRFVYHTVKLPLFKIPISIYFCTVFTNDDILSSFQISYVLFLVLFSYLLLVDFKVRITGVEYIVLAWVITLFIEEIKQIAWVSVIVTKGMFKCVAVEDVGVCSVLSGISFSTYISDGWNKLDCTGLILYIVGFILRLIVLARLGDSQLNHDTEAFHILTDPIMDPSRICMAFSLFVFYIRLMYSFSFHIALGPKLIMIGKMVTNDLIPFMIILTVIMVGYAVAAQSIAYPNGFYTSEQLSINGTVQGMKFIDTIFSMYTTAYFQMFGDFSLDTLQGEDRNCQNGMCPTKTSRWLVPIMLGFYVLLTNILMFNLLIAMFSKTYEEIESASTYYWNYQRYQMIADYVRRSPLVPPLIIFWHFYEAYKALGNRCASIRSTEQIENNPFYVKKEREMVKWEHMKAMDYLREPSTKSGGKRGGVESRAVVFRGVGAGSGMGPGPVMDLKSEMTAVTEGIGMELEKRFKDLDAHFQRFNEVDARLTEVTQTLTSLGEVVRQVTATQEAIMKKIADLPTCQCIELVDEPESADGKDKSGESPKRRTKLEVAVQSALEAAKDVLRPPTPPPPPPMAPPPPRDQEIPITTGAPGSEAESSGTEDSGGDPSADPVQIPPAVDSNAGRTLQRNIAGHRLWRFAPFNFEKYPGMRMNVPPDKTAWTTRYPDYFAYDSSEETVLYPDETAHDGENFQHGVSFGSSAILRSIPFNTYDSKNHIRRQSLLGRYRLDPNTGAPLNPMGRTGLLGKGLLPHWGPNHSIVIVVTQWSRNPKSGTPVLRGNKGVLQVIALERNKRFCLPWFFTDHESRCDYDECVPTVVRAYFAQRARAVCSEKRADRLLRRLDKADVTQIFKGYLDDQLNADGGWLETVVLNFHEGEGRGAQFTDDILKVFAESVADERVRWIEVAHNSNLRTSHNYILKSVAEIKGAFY

For `O=C(C1CCCCC1)N1CC(=O)N2CCc3ccc(-n4cc(C5=CCCCC5)nn4)cc3C2C1` (stereo not drawn) [Compound 5b], the EC50 ([1]; Schistosoma mansoni, 0 h, female adult worms, 0 h (immediately after addition), single experiment or geometric mean, read-out: Female worm motility inhibition (EC50)) was 101 µM, the EC50 ([1]; Schistosoma mansoni, 0 h, male adult worms, 0 h (immediately after addition), single experiment or geometric mean, read-out: Male worm motility inhibition (EC50)) was 32.7 µM and the EC50 ([1]; Schistosoma mansoni, 0 h, male, 0 h, individual experiments, read-out: Male worm motility inhibition (EC50), values of independent experiments) was 31.6 µM. The EC50 ([1]; Schistosoma mansoni, 24 h, female adult worms, 24 h, single experiment or geometric mean, read-out: Female worm motility inhibition (EC50)) was 96.2 µM, the EC50 ([1]; Schistosoma mansoni, 24 h, male adult worms, 24 h, single experiment or geometric mean, read-out: Male worm motility inhibition (EC50)) was 47 µM and the EC50 ([1]; Schistosoma mansoni, 24 h, male, 24 h, individual experiments, read-out: Male worm motility inhibition (EC50), values of independent experiments) was 50.4 µM. The EC50 ([1]; Schistosoma mansoni, 48 h, female adult worms, 48 h, single experiment or geometric mean, read-out: Female worm motility inhibition (EC50)) was 95 µM, the EC50 ([1]; Schistosoma mansoni, 48 h, male adult worms, 48 h, single experiment or geometric mean, read-out: Male worm motility inhibition (EC50)) was 49.2 µM and the EC50 ([1]; Schistosoma mansoni, 48 h, male, 48 h, individual experiments, read-out: Male worm motility inhibition (EC50), values of independent experiments) was 54.2 µM. It also gave an EC50 ([1]; Schistosoma mansoni, 72 h, female adult worms, 72 h, single experiment or geometric mean, read-out: Female worm motility inhibition (EC50)) of 89.1 µM, an EC50 ([1]; Schistosoma mansoni, 72 h, male adult worms, 72 h, single experiment or geometric mean, read-out: Male worm motility inhibition (EC50)) of 40.5 µM and an EC50 ([1]; Schistosoma mansoni, 72 h, male, 72 h, individual experiments, read-out: Male worm motility inhibition (EC50), values of independent experiments) of 44.7 µM. For the same compound, the EC50 ([1]; Schistosoma mansoni, female, 0-72 h, read-out: EC50 against female adult worms (motility), span over incubation times) was > 30 µM, the EC50 ([1]; Schistosoma mansoni, male, 0-72 h, read-out: EC50 against male adult worms (motility), span over incubation times) was > 30 µM and the EC50 ([1]; female adult worms, 0 h (immediately after addition), single experiment or geometric mean, read-out: Female worm motility inhibition (EC50)) was 101 µM. The EC50 ([1]; female adult worms, 24 h, single experiment or geometric mean, read-out: Female worm motility inhibition (EC50)) was 96 µM, the EC50 ([1]; female adult worms, 72 h, single experiment or geometric mean, read-out: Female worm motility inhibition (EC50)) was 89 µM and the EC50 ([1]; male adult worms, 0 h (immediately after addition), single experiment or geometric mean, read-out: Male worm motility inhibition (EC50)) was 33 µM. For the same compound, the EC50 ([1]; male adult worms, 48 h, single experiment or geometric mean, read-out: Male worm motility inhibition (EC50)) was 49 µM, the EC50 ([1]; male adult worms, 72 h, single experiment or geometric mean, read-out: Male worm motility inhibition (EC50)) was 40 µM and the EC50 ([1]; male, 24 h, individual experiments, read-out: Male worm motility inhibition (EC50), values of independent experiments) was 43.8 µM. The EC50 ([1]; male, 48 h, individual experiments, read-out: Male worm motility inhibition (EC50), values of independent experiments) was 44.6 µM, the EC50 ([1]; male, 72 h, individual experiments, read-out: Male worm motility inhibition (EC50), values of independent experiments) was 36.6 µM and the “number of juvenile worms with viability score 0” value [2] was 21. The “number of juvenile worms with viability score 1” value [2] was 1, the “number of juvenile worms with viability score 2” value [2] was 3 and the “number of juvenile worms with viability score 3” value [2] was 7. The “EC50 for Eg.TRPMPZQ activation” value [3] was “No signal”, the Emax ([3]; read-out: Bmax, Eg.TRPMPZQ activation) was 10.4 ± 0.31% and the “Bmax, wild-type Sm.TRPMPZQ activation” value [4] was “No activity”. For the same compound, the “EC50 for wild-type Sm.TRPMPZQ activation” value ([4]; 0.001 to 100 μM) was “failed to activate; also recorded: No activity”, the “Selectivity Index (CC50/EC50), Female” value ([5]; HepG2 CC50 / female worm motility EC50, 48 h) was 0.3 and the “Selectivity Index (CC50/EC50), Male” value ([5]; HepG2 CC50 / male worm motility EC50, 48 h) was 0.6. The “Selectivity Index (SI), sex not specified” value ([5]; HepG2 vs adult worms, 48 h) was < 1, the CC50 at 48 h [6] was 28.5 µM and the CC50 at 48 h ([6]; values of independent experiments) was 28.7 µM.
